# Test results taken from patent US8883765B2, “Anti-cytomegalovirus activity of artemisinin-derived dimers” (The John Hopkins University, priority 2009, dated 2014).
# Where two headings read alike, the source gives them in different places.
# Key:
# [1] = system: CMV IE1 protein expression; assay: Western blot for CMV immediate early protein IE1 (and GFP); format: cell-based, human CMV; set-up: expression of IE1 and GFP: dose or concentration left out as unconfirmed; details: for IE1 expression: clinical isolate SB, MOI=1; for expression of IE1 and GFP: Towne-GFP, artemisinin
# Description: Monoclonal antibodies to CMV immediate early proteins IE-1 and IE-2 (MAb810) and to cellular β-actin were purchased from Millipore (Billerica, Mass.). Confluent cells were infected with CMV in the presence of artemisinin compounds. At the indicated times cells were harvested in sample buffer (RIPA buffer, Tris 50 mM, Nacl 150 mM, SDS 0.1%, Na Deoxycholate 0.5%, NP40 1%, and protease inhibitor cocktail), boiled and loaded onto SDS-PAGE. Proteins were separated by electrophoresis and transferred to nitrocellulose membrane. After blocking, blots were probed with primary antibody (1:3,000) overnight at 4° C. in phosphate-buffered saline, and Tween. After washing 3 times, blots were probed with HRP-conjugated anti-mouse (Sigma), 1:5,000 for 1 hour at room temperature. Blots were washed three times in phosphate-buffered saline/Tween, and then developed by enhanced chemiluminescence according to manufacturer protocol.
# The expression of CMV immediate early (IE) protein was tested by western blot to determine whether artemisinins' inhibition of CMV replication occurs early in the virus life cycle. […] Further evidence for the early effect of artemisinins on IE1 protein expression was obtained with the clinical isolate (SB, FIG. 5b). […] Stinski M F. Sequence of protein synthesis in cells infected by human cytomegalovirus: early and late virus-induced polypeptides. J Virol. 1978; 26:686-701.
# [2] = system: recombinant luciferase-expressing CMV; assay: Plaque reduction assay in human embryonic lung cells (HEL); format: cell-based, human CMV; details: 10 μM, luciferase virus
# Description: For plaque reduction assay, human embryonic lung cells were seeded into six-well plates and incubated at 37° C. one day prior to infection with the recombinant luciferase-expressing CMV. […] The virus was diluted to a desired concentration which gave 50-60 plaques per well. Medium was aspirated from the wells, and 0.2 ml of virus suspension was added to each well in triplicates. Plates were incubated for 90 minutes with shaking every 10 min, thereafter drugs were added and a methylcellulose overlay applied to each well. After incubation for 10 days, cells were stained with crystal violet. The stain was aspirated, wells were washed with phosphate-buffered saline, and plaques were counted.
# [3] = system: pp 28-luciferase expressing CMV (Towne); assay: microbe, parasite or virus in culture; format: cell-based, human CMV; details: for inhibition of CMV replication: different batches and passages of HFF, and HEL cells
# Source text: A recombinant virus expressing luciferase reporter gene under the control of UL99 (pp 28) late promoter was generated by insertion of the reporter gene between the US9 and US10 ORFs in the Towne genome. […] Ahn J H, Hayward G S. Disruption of PML-associated nuclear bodies by IE1 correlates with efficient early stages of viral gene expression and DNA replication in human cytomegalovirus infection. Virology. 2000; 274:39-55.
# (§1) Towne-GFP, Towne-luciferase, and SB viruses were used in these assays. HFF or HEL were grown to subconfluent monolayers and infected with the CMV viruses at MOI 0.1 to 3. […] J Mol Med. 2002; 80:233-242. The concentration of each compound was calculated and adjusted by volume such that it was constant throughout the experiment. Following 90 minute incubation, media was replaced with fresh media containing the drug used. Infected and treated cells were incubated at 37° C. in a 5% CO2 atmosphere for 3-10 days depending on the virus and the anti-viral assay. The recombinant luciferase-expressing virus was incubated for 72 hours, the GFP virus was incubated for 5 days, and the clinical isolate for 10 days. All experiments were subsequently repeated with compounds added to wells just after viral inoculation.
# CMV clinical isolates = details: 11.1 μM; cited from earlier work
# [4] = system: Human Foreskin Fibroblasts (HFF); assay: Cellular cytotoxicity, CellTiter-Glo Luminescent Cell Viability Assay; details: drug concentration that leads to 50% cellular cytotoxicity; mean and SD, at least five experiments in triplicates
# Description: (§2) Cellular cytotoxicity was determined using CellTiter-Glo® Luminescent Cell Viability Assay (Promega, Madison, Wis.). The assay determines the number of viable cells in culture based on quantification of the ATP present.
# (§3) For EC50 and CC50 reported values represent the mean and SD of data derived from at least five independent experiments performed in triplicates.
# [5] = system: Human Foreskin Fibroblasts (HFF)
# Description: as §2, §3
# [6] = system: GFP-tagged CMV (Towne-GFP); assay: GFP-tagged CMV replication in pretreated HFF; format: cell-based, human CMV; details: pretreatment of HFF with different concentrations; data not shown
# Description: The CMV strains used for infections were the highly-passaged Towne virus, and a clinical isolate obtained from the urine of a neonate with congenital CMV infection (SB) and passaged once in tissue culture. […] Initial experiments were performed using a recombinant human CMV-green fluorescent protein (GFP) virus, derived from Towne strain. […] J Virol.
# as §1
# [7] = system: Toxoplasmosis (Toxoplasma gondii); assay: Anti-toxoplasmosis activity of supernatants of CMV infected cells; format: cell-based; details: supernatants of CMV infected cells at 3-5 days post infection
# Description: To confirm that the difference in anti-CMV activity between monomers and dimers was not a result of instability of the monomers in tissue culture, the anti-toxoplasmosis activity of these compounds was determined in the supernatants of CMV infected cells at 3-5 days post infection. […] Antimicrob Agents Chemother. 2006; 50:4206-4208.
compound,measurement,setting,value
"Nc1nc(O)c2ncn(COC(CO)CO)c2n1 [GCV, Ganciclovir]",IE1 expression,[1]; 10 μM,not affected
same,reduction in plaque formation,[2],80%
same,CMV inhibition compared with the four monomers,"[3]; 10 μM, FIG. 2",more potent
C[C@H]1[C@@H](CC(C[C@H]2O[C@@H]3O[C@@]4(C)CC[C@H]5[C@H](C)CC[C@@H]([C@H]2C)[C@@]35OO4)CS(=O)(=O)c2ccc(COC(=O)N(C)C)cc2)O[C@@H]2O[C@@]3(C)CC[C@H]4[C@H](C)CC[C@@H]1[C@@]24OO3 (stereo partly drawn) [Dimer sulfone carbamate (6)],inhibition of CMV replication,[3],dramatic inhibition
C[C@H]1[C@@H](CC(COP(=O)(Oc2ccccc2)Oc2ccccc2)C[C@H]2O[C@@H]3O[C@@]4(C)CC[C@H]5[C@H](C)CC[C@@H]([C@H]2C)[C@@]35OO4)O[C@@H]2O[C@@]3(C)CC[C@H]4[C@H](C)CC[C@@H]1[C@@]24OO3 (stereo partly drawn) [Dimer isobu-OP(O)(OPh)2],rank as CMV inhibitor among eight representative dimers,[3]; FIGS. 7 and 8,most potent
same,selectivity index,"[3]; eight representative dimers, FIGS. 7 and 8",> 1000
"C[C@H]1[C@H](OC(=O)CCC(=O)O)O[C@@H]2O[C@@]3(C)CC[C@H]4[C@H](C)CC[C@@H]1[C@@]24OO3 [Artesunate (2d), Artesunate]",in-vitro inhibition of clinical isolates,CMV clinical isolates,50-80%
same,CC50,[4],77.5 ± 14.4 µM
same,EC50,[3]; Human betaherpesvirus 5,18.5 ± 5.2 µM
"C[C@H]1[C@@H](CCC(=O)Nc2ccc(F)cc2)O[C@@H]2OC3(C)CC[C@H]4[C@H](C)CC[C@@H]1[C@@]24OO3 [Artefanilide (3), Artefanilide]",CC50,[5],44.9 ± 3.4 µM
same,EC50,"[3]; Table 1, 50% virus inhibition, mean and SD, at least five experiments in triplicates, read-out: EC50",8.1 ± 2.2 µM
"C[C@@H]1CC[C@H]2[C@@H](C)C(=O)O[C@@H]3O[C@@]4(C)CC[C@@H]1[C@]32OO4 [Artemisinin (1), Artemisinin]",CMV replication,[6],dose-dependent reduction
same,expression of IE1 and GFP,[1]; MOI of 0.1,undetectable
same,expression of IE1 and GFP,[1]; MOI of 0.5,decreased
C[C@H]1[C@@H](CC(CO)C[C@H]2O[C@@H]3O[C@@]4(C)CC[C@H]5[C@H](C)CC[C@@H]([C@H]2C)[C@@]35OO4)O[C@@H]2O[C@@]3(C)CC[C@H]4[C@H](C)CC[C@@H]1[C@@]24OO3 (stereo partly drawn) [Dimer primary alcohol (4)],time post infection at which inhibition of IE1 expression was observed (as early as),"[1]; SB, MOI=3, prior to onset of DNA replication",12 h
same,IE1 expression,"[1]; 1-μM, 24 and 48 hr",significantly reduced
same,EC50,[7],0.4 ± 0.15 µM
same,inhibition of CMV replication,[3],dramatic inhibition
